Laboratory results as given in patent US20040014047A1, “Antisense modulation of LIM domain kinase 1 expression” (Isis Pharmaceuticals Inc., priority 2002, published 2004).
Strand notation (5' to 3'): a small letter for the sugar, then the base; units joined by * are phosphorothioate-linked, units joined directly phosphodiester-linked; [ ] holds rarer units or linkages, { } end groups; capitals alone tell only the bases. e = 2'-O-(2-methoxyethyl) (MOE); [5mC] = 5-methylcytosine; d = 2'-deoxy (DNA)

The substances below were run on human LIM domain kinase 1 mRNA (assay: Antisense inhibition of human LIM domain kinase 1 mRNA levels, quantitative real-time PCR, A549 cells (screen)). Conditions: real-time PCR, bound stated.
Format: cell-based
Method: When cells reached 70% confluency, they were treated with oligonucleotide. […] Cells were harvested 16-24 hours after oligonucleotide treatment.
Vacuum was applied for 1 minute.
PCR reagents were obtained from Invitrogen Corporation, (Carlsbad, Calif.).
Total RNA is quantified using RiboGreenTM RNA quantification reagent from Molecular Probes.
Probes and primers to human LIM domain kinase 1 were designed to hybridize to a human LIM domain kinase 1 sequence, using published sequence information (GenBank accession number D26309.1, incorporated herein as SEQ ID NO:4). For human LIM domain kinase 1 the PCR primers were: forward primer: […] (SEQ ID NO: 5) reverse primer: […] (SEQ ID NO: 6) and the PCR probe was: FAM-[…]-TAMRA (SEQ ID NO: 7) where FAM is the fluorescent dye and TAMRA is the quencher dye.
All cytidine residues are 5-methylcytidines. […] Data are averages from two experiments in which A549 cells were treated with the oligonucleotides of the present invention. […] If present, “N.D.” indicates “no data”.

Question: “aagcttcacagttttaatac (eA*eA*eG*e[5mC]*eT*dT*d[5mC]*dA*d[5mC]*dA*dG*dT*dT*dT*dT*eA*eA*eT*eA*e[5mC]; antisense) [ISIS 206217]” was tested. Which “inhibition of human LIM domain kinase 1 expression (text summary of Table 1)” value (“inhibition” below) did it give?
Answer: at least 65%

Question: “acatctgggctcatgcagcc (eA*e[5mC]*eA*eT*e[5mC]*dT*dG*dG*dG*d[5mC]*dT*d[5mC]*dA*dT*dG*e[5mC]*eA*eG*e[5mC]*e[5mC]; antisense) [ISIS 206180]” was tested. Which “inhibition” value did it give?
Answer: at least 65%

Question: How did the “inhibition” value turn out when “actgcctctcgggttcaagc (eA*e[5mC]*eT*eG*e[5mC]*d[5mC]*dT*d[5mC]*dT*d[5mC]*dG*dG*dG*dT*dT*e[5mC]*eA*eA*eG*e[5mC]; antisense) [ISIS 206228]” was run?
Answer: at least 65%

Question: Which “inhibition” value does the source give for “agcttggagtgctccaccag (eA*eG*e[5mC]*eT*eT*dG*dG*dA*dG*dT*dG*d[5mC]*dT*d[5mC]*d[5mC]*eA*e[5mC]*e[5mC]*eA*eG; antisense) [ISIS 206177]” here?
Answer: at least 65%

Question: How did the “inhibition” value turn out when “agggcctggaggtactggcc (eA*eG*eG*eG*e[5mC]*d[5mC]*dT*dG*dG*dA*dG*dG*dT*dA*d[5mC]*eT*eG*eG*e[5mC]*e[5mC]; antisense) [ISIS 206171]” was run?
Answer: at least 65%

Question: Which “inhibition” value does the source give for “aggtaggccatccctgatgc (eA*eG*eG*eT*eA*dG*dG*d[5mC]*d[5mC]*dA*dT*d[5mC]*d[5mC]*d[5mC]*dT*eG*eA*eT*eG*e[5mC]; antisense) [ISIS 206201]” here?
Answer: at least 65%

Question: “aggtccttgcgctgggaggc (eA*eG*eG*eT*e[5mC]*d[5mC]*dT*dT*dG*d[5mC]*dG*d[5mC]*dT*dG*dG*eG*eA*eG*eG*e[5mC]; antisense) [ISIS 206193]” was tested. Which “inhibition” value did it give?
Answer: at least 65%

Question: How did the “inhibition” value turn out when “agtacagcttggagtgctcc (eA*eG*eT*eA*e[5mC]*dA*dG*d[5mC]*dT*dT*dG*dG*dA*dG*dT*eG*e[5mC]*eT*e[5mC]*e[5mC]; antisense) [ISIS 206178]” was run?
Answer: at least 65%

Question: With “agtagtccttcttgcagaag (eA*eG*eT*eA*eG*dT*d[5mC]*d[5mC]*dT*dT*d[5mC]*dT*dT*dG*d[5mC]*eA*eG*eA*eA*eG; antisense) [ISIS 206173]” as the substance, how does the “inhibition” value read?
Answer: at least 65%

Question: With “atacgttcttccctccaggt (eA*eT*eA*e[5mC]*eG*dT*dT*d[5mC]*dT*dT*d[5mC]*d[5mC]*d[5mC]*dT*d[5mC]*e[5mC]*eA*eG*eG*eT; antisense) [ISIS 206167]” as the substance, how does the “inhibition” value read?
Answer: at least 65%

Question: “atgctgcagctcctcctggg (eA*eT*eG*e[5mC]*eT*dG*d[5mC]*dA*dG*d[5mC]*dT*d[5mC]*d[5mC]*dT*d[5mC]*e[5mC]*eT*eG*eG*eG; antisense) [ISIS 206232]” was tested. Which “inhibition” value did it give?
Answer: at least 65%

Question: Which “inhibition” value does the source give for “atttccaagatccggtctcc (eA*eT*eT*eT*e[5mC]*d[5mC]*dA*dA*dG*dA*dT*d[5mC]*d[5mC]*dG*dG*eT*e[5mC]*eT*e[5mC]*e[5mC]; antisense) [ISIS 206184]” here?
Answer: at least 65%

Question: For “caggtgcaacaaagtagcgt (e[5mC]*eA*eG*eG*eT*dG*d[5mC]*dA*dA*d[5mC]*dA*dA*dA*dG*dT*eA*eG*e[5mC]*eG*eT; antisense) [ISIS 206164]”, which “inhibition” value is on record?
Answer: at least 65%

Question: How did the “inhibition” value turn out when “cattcttgttctcgcggacc (e[5mC]*eA*eT*eT*e[5mC]*dT*dT*dG*dT*dT*d[5mC]*dT*d[5mC]*dG*d[5mC]*eG*eG*eA*e[5mC]*e[5mC]; antisense) [ISIS 206204]” was run?
Answer: at least 65%

Question: With “ccacctcccgcggaggaatc (e[5mC]*e[5mC]*eA*e[5mC]*e[5mC]*dT*d[5mC]*d[5mC]*d[5mC]*dG*d[5mC]*dG*dG*dA*dG*eG*eA*eA*eT*e[5mC]; antisense) [ISIS 206208]” as the substance, how does the “inhibition” value read?
Answer: at least 65%

Question: How did the “inhibition” value turn out when “ccaggtgagtgtgcaaggca (e[5mC]*e[5mC]*eA*eG*eG*dT*dG*dA*dG*dT*dG*dT*dG*d[5mC]*dA*eA*eG*eG*e[5mC]*eA; antisense) [ISIS 206230]” was run?
Answer: at least 65%

Question: With “cctccagggagctatggacc (e[5mC]*e[5mC]*eT*e[5mC]*e[5mC]*dA*dG*dG*dG*dA*dG*d[5mC]*dT*dA*dT*eG*eG*eA*e[5mC]*e[5mC]; antisense) [ISIS 206210]” as the substance, how does the “inhibition” value read?
Answer: at least 65%

Question: For “cgccatagcgggcccagtag (e[5mC]*eG*e[5mC]*e[5mC]*eA*dT*dA*dG*d[5mC]*dG*dG*dG*d[5mC]*d[5mC]*d[5mC]*eA*eG*eT*eA*eG; antisense) [ISIS 206176]”, which “inhibition” value is on record?
Answer: at least 65%

Question: With “ctcagacccttgagttactg (e[5mC]*eT*e[5mC]*eA*eG*dA*d[5mC]*d[5mC]*d[5mC]*dT*dT*dG*dA*dG*dT*eT*eA*e[5mC]*eT*eG; antisense) [ISIS 206227]” as the substance, how does the “inhibition” value read?
Answer: at least 65%

Question: “ctctgggccacggcagagag (e[5mC]*eT*e[5mC]*eT*eG*dG*dG*d[5mC]*d[5mC]*dA*d[5mC]*dG*dG*d[5mC]*dA*eG*eA*eG*eA*eG; antisense) [ISIS 206209]” was tested. Which “inhibition” value did it give?
Answer: at least 65%

Question: With “ctgctgcagccgtatgaaaa (e[5mC]*eT*eG*e[5mC]*eT*dG*d[5mC]*dA*dG*d[5mC]*d[5mC]*dG*dT*dA*dT*eG*eA*eA*eA*eA; antisense) [ISIS 206162]” as the substance, how does the “inhibition” value read?
Answer: at least 65%

Question: With “ctggctgtccatgctcttga (e[5mC]*eT*eG*eG*e[5mC]*dT*dG*dT*d[5mC]*d[5mC]*dA*dT*dG*d[5mC]*dT*e[5mC]*eT*eT*eG*eA; antisense) [ISIS 206200]” as the substance, how does the “inhibition” value read?
Answer: at least 65%

Question: Which “inhibition” value does the source give for “cttcctctcccatacgttct (e[5mC]*eT*eT*e[5mC]*e[5mC]*dT*d[5mC]*dT*d[5mC]*d[5mC]*d[5mC]*dA*dT*dA*d[5mC]*eG*eT*eT*e[5mC]*eT; antisense) [ISIS 206169]” here?
Answer: at least 65%

Question: How did the “inhibition” value turn out when “gacaggtttctgccgggcag (eG*eA*e[5mC]*eA*eG*dG*dT*dT*dT*d[5mC]*dT*dG*d[5mC]*d[5mC]*dG*eG*eG*e[5mC]*eA*eG; antisense) [ISIS 206190]” was run?
Answer: at least 65%

Question: For “gcagctgctgctgcagccgt (eG*e[5mC]*eA*eG*e[5mC]*dT*dG*d[5mC]*dT*dG*d[5mC]*dT*dG*d[5mC]*dA*eG*e[5mC]*e[5mC]*eG*eT; antisense) [ISIS 206215]”, which “inhibition” value is on record?
Answer: at least 65%

Question: “gcagtgcccgcagtacagct (eG*e[5mC]*eA*eG*eT*dG*d[5mC]*d[5mC]*d[5mC]*dG*d[5mC]*dA*dG*dT*dA*e[5mC]*eA*eG*e[5mC]*eT; antisense) [ISIS 206179]” was tested. Which “inhibition” value did it give?
Answer: at least 65%

Question: For “gcagtgcccgctgcaagagc (eG*e[5mC]*eA*eG*eT*dG*d[5mC]*d[5mC]*d[5mC]*dG*d[5mC]*dT*dG*d[5mC]*dA*eA*eG*eA*eG*e[5mC]; antisense) [ISIS 206231]”, which “inhibition” value is on record?
Answer: at least 65%

Question: How did the “inhibition” value turn out when “gcatcgcatgaccttcacct (eG*e[5mC]*eA*eT*e[5mC]*dG*d[5mC]*dA*dT*dG*dA*d[5mC]*d[5mC]*dT*dT*e[5mC]*eA*e[5mC]*e[5mC]*eT; antisense) [ISIS 206197]” was run?
Answer: at least 65%

Question: Which “inhibition” value does the source give for “gccattgatttccaagatcc (eG*e[5mC]*e[5mC]*eA*eT*dT*dG*dA*dT*dT*dT*d[5mC]*d[5mC]*dA*dA*eG*eA*eT*e[5mC]*e[5mC]; antisense) [ISIS 206185]” here?
Answer: at least 65%

Question: “gctgctgcagccgtatgaaa (eG*e[5mC]*eT*eG*e[5mC]*dT*dG*d[5mC]*dA*dG*d[5mC]*d[5mC]*dG*dT*dA*eT*eG*eA*eA*eA; antisense) [ISIS 206224]” was tested. Which “inhibition” value did it give?
Answer: at least 65%

Question: “ggaattcttcacatctgggc (eG*eG*eA*eA*eT*dT*d[5mC]*dT*dT*d[5mC]*dA*d[5mC]*dA*dT*d[5mC]*eT*eG*eG*eG*e[5mC]; antisense) [ISIS 206182]” was tested. Which “inhibition” value did it give?
Answer: at least 65%

Question: How did the “inhibition” value turn out when “ggagtgaaagcacccagctg (eG*eG*eA*eG*eT*dG*dA*dA*dA*dG*d[5mC]*dA*d[5mC]*d[5mC]*d[5mC]*eA*eG*e[5mC]*eT*eG; antisense) [ISIS 206225]” was run?
Answer: at least 65%

Question: “ggcccagtagtccttcttgc (eG*eG*e[5mC]*e[5mC]*e[5mC]*dA*dG*dT*dA*dG*dT*d[5mC]*d[5mC]*dT*dT*e[5mC]*eT*eT*eG*e[5mC]; antisense) [ISIS 206174]” was tested. Which “inhibition” value did it give?
Answer: at least 65%

Question: With “ggcgtgccattgatttccaa (eG*eG*e[5mC]*eG*eT*dG*d[5mC]*d[5mC]*dA*dT*dT*dG*dA*dT*dT*eT*e[5mC]*e[5mC]*eA*eA; antisense) [ISIS 206186]” as the substance, how does the “inhibition” value read?
Answer: at least 65%

Question: For “ggtccttgcgctgggaggcc (eG*eG*eT*e[5mC]*e[5mC]*dT*dT*dG*d[5mC]*dG*d[5mC]*dT*dG*dG*dG*eA*eG*eG*e[5mC]*e[5mC]; antisense) [ISIS 206233]”, which “inhibition” value is on record?
Answer: at least 65%
